Data on 2 molecules can be found in patent US11746103B2, “ALK-5 inhibitors and uses thereof” (Sumitomo Pharma Oncology, Inc., priority 2020, dated 2023).

The subject of data set [1] is TGF-beta induced SMAD signaling. The data set can be described thus: RDSR (RD SMAD reporter) Cellular Reporter Assay. To be noted: Homo sapiens; 200 pg/ml rhTGF-beta1, 24 h; read-out: RD-SMAD reporter activity. The class given is cell-based. Summed up: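 Human rhabdomyosarcoma RD cells stably carrying an SBE-driven luc2P luciferase reporter. Inhibition of SMAD signaling was quantified from ONE-Glo luminescence.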
On the technique in general: Reporter assays use an easily measured gene product as a stand-in for the process of interest.

In another data set the target is ALK-5 (Homo sapiens (Human), UniProt P36897). The data set can be described thus: LanthaScreen Eu Kinase Binding Assay, ALK-5. To be noted: for IC50: read-out: Kinase Inhibition: ALK5 IC50. An outline of the steps:
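TR-FRET binding assay: compound displaces an ATP-site-directed Alexa Fluor tracer from kinase detected by Eu-labelled anti-tag antibody, lowering FRET. 10-point, 3-fold serial dilutions, 60 min incubation at room temperature, read without development step. Dose-response curves fitted.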
(TR-FRET usually uses a lanthanide donor and a delayed reading to cut background.)

Data set [2] has as its system TGF-β1 mediated alpha-SMA expression in primary human bronchial fibroblasts derived from IPF patients. The data set can be described thus: Fibroblast to Myofibroblast Transformation (FMT) assay. To be noted: for max PIN of TGF-β1 mediated alpha-SMA expression: in at least two donors.
Method: To test the ability of compounds of the invention to inhibit the TGF-β1 dependent transition of fibroblasts to myofibroblasts in a relevant disease model of IPF, a study was carried out using an FMT assay employing lung fibroblasts from IPF patients. In this model the transition of fibroblasts to myofibroblasts is determined by the expression of the biomarker alpha smooth muscle actin (SMA).
Each drug concentration condition was evaluated in biological duplicates. One hour after compound addition, cells were stimulated with 1.25 ng/ml of TGF-01 and cultured for 72 hours thereafter. At the end of 72 hours cells were fixed using formaldehyde. The results were generated using high content imaging after staining cells using the nuclear stain DAPI as well as evaluation of the expression of alpha SMA. […] As a negative control 0.1% DMSO was used matching the DMSO concentration in treated wells.

ALK-5, sequence (P36897 34-503): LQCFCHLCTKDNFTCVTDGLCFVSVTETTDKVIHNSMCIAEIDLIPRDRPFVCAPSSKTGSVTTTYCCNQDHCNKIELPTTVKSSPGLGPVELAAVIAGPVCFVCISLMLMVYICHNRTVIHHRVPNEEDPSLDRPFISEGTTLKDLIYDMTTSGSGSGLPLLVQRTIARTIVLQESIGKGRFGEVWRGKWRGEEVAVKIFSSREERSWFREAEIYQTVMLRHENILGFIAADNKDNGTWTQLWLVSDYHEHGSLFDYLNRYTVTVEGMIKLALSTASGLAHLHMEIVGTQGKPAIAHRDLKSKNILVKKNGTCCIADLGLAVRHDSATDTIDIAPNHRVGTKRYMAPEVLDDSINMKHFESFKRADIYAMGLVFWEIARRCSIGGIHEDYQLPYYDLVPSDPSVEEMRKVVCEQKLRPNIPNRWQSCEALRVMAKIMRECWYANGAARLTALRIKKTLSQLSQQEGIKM

For the molecule `Cc1cccc2c(Nc3ccnc(Nc4ccc(N5CCOCC5)cc4)n3)cnnc12` [EX-10, N4-(8-methylcinnolin-4-yl)-N2-(4-morpholino-phenyl)-pyrimidine-2,4-diamine], the IC50 in data set [1] is below 100 nM. Besides, on ALK-5, the “Kinase Selectivity: ALK2 IC50/ ALK5 IC50” value is “(++) (10<ALK2/ALK5<100=[++])” and the IC50 is below 10 nM. Also, in data set [2] (donor IPF05), the “LogM IC50 αSMA” value is reported as −6.8 LogM, the “Max PIN (%)” value was 106.4% and the “potentially toxic (>25% loss of nuclei)” value is on record as above −5.5. In data set [2] (donor IPF06), the “LogM IC50 αSMA” value is on record as −6.7 LogM and the “Max PIN (%)” value worked out at 110.3%. In data set [2] (donor IPF08), the “LogM IC50 αSMA” value is on record as −7.0 LogM, the “Max PIN (%)” value is recorded as 100.3% and the “potentially toxic (>25% loss of nuclei)” value was above −5.5. Also, in data set [2], the “max PIN of TGF-β1 mediated alpha-SMA expression” value was “greater than 75”.

Turning to `Cc1cccc2c(Nc3ccnc(Nc4cccc(N5CCOCC5)c4)n3)cnnc12` [EX-11, N4-(8-methylcinnolin-4-yl)-N2-(3-morpholinophenyl)pyrimidine-2,4-diamine], the IC50 in data set [1] was below 100 nM. For the same molecule, at ALK-5, the “Kinase Selectivity: ALK2 IC50/ ALK5 IC50” value is “(++) (10<ALK2/ALK5<100=[++])” and the IC50 is below 10 nM. Moreover, in data set [2] (donor IPF05), the “LogM IC50 αSMA” value was −7.2 LogM, the “Max PIN (%)” value is listed as 107.2% and the “potentially toxic (>25% loss of nuclei)” value is given as above −6.0. For the same molecule, in data set [2] (donor IPF06), the “LogM IC50 αSMA” value is −7.0 LogM, the “Max PIN (%)” value is given as 112.9% and the “potentially toxic (>25% loss of nuclei)” value is reported as above −5.5. Also, in data set [2] (donor IPF08), the “LogM IC50 αSMA” value is given as −7.3 LogM, the “Max PIN (%)” value was 103.7% and the “potentially toxic (>25% loss of nuclei)” value is given as above −6.0. For the same molecule, the “inhibition of TGF-β-mediated alpha-SMA expression” value in data set [2] (in all three donors) is “full concentration-dependent inhibition”. Moreover, the “max PIN of TGF-β1 mediated alpha-SMA expression” value in data set [2] is recorded as “greater than 75”.
